Consider 19 molecules from US20230019491A1, “PYRIMIDINE TBK/IKKe INHIBITOR COMPOUNDS AND USES THEREOF” (Merck Patent GmbH, priority 2017, published 2023).

Test [1] deals with T1, TBK1 (Homo sapiens, UniProt Q9UHD2).
T1 sequence (Q9UHD2 1-729): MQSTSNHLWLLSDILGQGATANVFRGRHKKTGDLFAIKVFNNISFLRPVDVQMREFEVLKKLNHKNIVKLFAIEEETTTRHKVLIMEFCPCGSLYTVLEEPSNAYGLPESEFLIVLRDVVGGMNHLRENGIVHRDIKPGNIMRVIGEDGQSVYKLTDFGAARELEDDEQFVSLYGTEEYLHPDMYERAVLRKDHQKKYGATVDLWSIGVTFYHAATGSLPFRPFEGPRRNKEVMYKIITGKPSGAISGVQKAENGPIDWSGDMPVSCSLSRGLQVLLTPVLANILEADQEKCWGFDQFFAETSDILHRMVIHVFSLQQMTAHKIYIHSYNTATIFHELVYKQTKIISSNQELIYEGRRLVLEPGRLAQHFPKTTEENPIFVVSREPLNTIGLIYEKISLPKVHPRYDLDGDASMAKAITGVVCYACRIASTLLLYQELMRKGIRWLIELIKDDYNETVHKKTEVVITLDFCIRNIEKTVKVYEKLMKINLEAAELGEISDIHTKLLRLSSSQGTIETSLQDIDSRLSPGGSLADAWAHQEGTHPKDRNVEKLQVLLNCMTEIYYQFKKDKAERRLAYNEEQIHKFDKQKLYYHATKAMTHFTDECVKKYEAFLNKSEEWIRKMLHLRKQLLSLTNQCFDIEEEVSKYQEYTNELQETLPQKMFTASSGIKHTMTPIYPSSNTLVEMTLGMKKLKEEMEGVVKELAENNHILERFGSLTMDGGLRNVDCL
The test can be described thus: TBK biochemical assay. The settings on record: 10 point 1:4 dose response, 30 uM top concentration, 90 min at 25° C., LabChip EZ Reader II; read-out: TBK1_IC50. The method, boiled down:
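Substrate and product were separated and quantified by microfluidic mobility-shift read (LabChip). 10 uM staurosporine served as the full-inhibition control, and the reference compound was tested from 1 uM final.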

Test [2] concerns the target T2, IKKε (Homo sapiens, UniProt Q14164).
T2 sequence (Q14164 1-716): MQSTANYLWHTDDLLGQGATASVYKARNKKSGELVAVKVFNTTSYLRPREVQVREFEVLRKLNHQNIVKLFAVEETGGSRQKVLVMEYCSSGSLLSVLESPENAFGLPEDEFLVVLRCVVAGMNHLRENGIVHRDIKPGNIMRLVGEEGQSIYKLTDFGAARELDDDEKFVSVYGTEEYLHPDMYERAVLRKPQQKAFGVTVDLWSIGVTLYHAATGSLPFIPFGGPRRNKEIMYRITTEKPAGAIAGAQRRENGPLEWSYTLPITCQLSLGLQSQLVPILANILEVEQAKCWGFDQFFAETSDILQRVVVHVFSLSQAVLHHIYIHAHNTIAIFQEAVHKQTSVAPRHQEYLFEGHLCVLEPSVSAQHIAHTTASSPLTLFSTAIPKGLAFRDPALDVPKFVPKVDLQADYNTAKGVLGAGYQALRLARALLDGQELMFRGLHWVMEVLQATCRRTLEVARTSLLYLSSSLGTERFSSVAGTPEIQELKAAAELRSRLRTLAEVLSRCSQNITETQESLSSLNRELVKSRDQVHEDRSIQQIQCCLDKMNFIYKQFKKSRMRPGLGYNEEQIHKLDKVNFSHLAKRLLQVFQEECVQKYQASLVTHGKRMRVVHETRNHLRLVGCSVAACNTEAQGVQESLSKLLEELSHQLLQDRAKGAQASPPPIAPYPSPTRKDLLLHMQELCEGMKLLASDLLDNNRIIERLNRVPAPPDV
The test can be described thus: IKKε biochemical assay. The following applies: 10 point 1:4 dose response, 30 uM top concentration, 90 min at 25° C., LabChip EZ Reader II; read-out: IKKε_IC50. In a few lines: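 Compounds in 1% DMSO final were incubated with IKKε enzyme and substrate at 25° C. for 90 min, then stopped. Substrate and product peaks were resolved by LabChip EZ Reader II mobility-shift read-out. Staurosporine at 10 uM final served as the full-inhibition control.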

`COc1nc(Nc2nccc(-c3ccc(O[C@@H]4CCN(C(=O)[C@H](C)O)C[C@H]4F)c(C#N)c3)n2)ccc1N1CCN(C2COC2)CC1` [Example 202, 2-[(3R,4R)-3-Fluoro-1-((S)-2-hydroxy-propionyl)-piperidin-4-yloxy]-5-{2-[6-methoxy-5-(4-oxetan-3-yl-piperazin-1-yl)-pyridin-2-ylamino]-pyrimidin-4-yl}-benzonitrile]: the IC50 in test [1] and in test [2] was less than 100 nM throughout.
`Cc1nc(C(=O)N2CCC(Oc3ccc(-c4ccnc(Nc5ccc(N6CCN(C)CC6)cc5)n4)cc3C#N)CC2)n[nH]1` [Example 203, 2-[[1-(5-methyl-1H-1,2,4-triazole-3-carbonyl)piperidin-4-yl]oxy]-5-(2-[[4-(4-methylpiperazin-1-yl)phenyl]amino]pyrimidin-4-yl)benzonitrile]: the IC50 in test [1] and in test [2] was less than 100 nM each time.
For `C[C@H](O)C(=O)N1CCC(Oc2ccc(-c3ccnc(Nc4cccnc4)n3)cc2C#N)C(F)(F)C1` (some centres unmarked) [Example 205], the IC50 in test [1] and in test [2] was less than 100 nM in each case.
As for `C[C@@H](O)C(=O)N1CCC(Oc2ccc(-c3ccnc(Nc4cccnc4)n3)cc2C#N)C(F)(F)C1` (stereo partly drawn) [Example 206, 2-([33-difluoro-1-[(2R)-2-hydroxypropanoyl]piperidin-4-yl]oxy)-5-[2-[(pyridin-3-yl)amino]pyrimidin-4-yl]benzonitrile], the IC50 in test [1] and in test [2] was less than 100 nM throughout.
With `C[C@H](O)C(=O)N1CCC(Oc2ccc(-c3ccnc(Nc4ccncc4)n3)cc2C#N)C(F)(F)C1` (stereo partly drawn) [Example 207, 2-([3,3-difluoro-1-[(2S)-2-hydroxypropanoyl]piperidin-4-yl]oxy)-5-[2-[(pyridin-4-yl)amino]pyrimidin-4-yl]benzonitrile], the IC50 in test [1] and in test [2] was less than 100 nM throughout.
Turning to `C[C@@H](O)C(=O)N1CCC(Oc2ccc(-c3ccnc(Nc4ccncc4)n3)cc2C#N)C(F)(F)C1` (stereo partly drawn) [Example 208, 2-([3,3-difluoro-1-[(2R)-2-hydroxypropanoyl]piperidin-4-yl]oxy)-5-[2-[(pyridin-4-yl)amino]pyrimidin-4-yl]benzonitrile], the IC50 in test [1] and in test [2] was less than 100 nM in each case.
On to `C[C@H](O)C(=O)N1CCC(Oc2ccc(-c3ccnc(Nc4ccccc4)n3)cc2C#N)C(F)(F)C1` (stereo partly drawn) [Example 209, 2-[3,3-Difluoro-1-((S)-2-hydroxy-propionyl)-piperidin-4-yloxy]-5-(2-phenylamino-pyrimidin-4-yl)-benzonitrile], for which the IC50 in test [1] and in test [2] was less than 100 nM in each case.
Take `N#Cc1cc(-c2ccnc(Nc3ccccc3)n2)ccc1OC1CCN(C(=O)[C@@H](O)CO)CC1(F)F` (stereo partly drawn) [Example 210, 2-[1-((S)-2,3-Dihydroxy-propionyl)-3,3-difluoro-piperidin-4-yloxy]-5-(2-phenylamino-pyrimidin-4-yl)-benzonitrile]: the IC50 in test [1] and in test [2] was less than 100 nM throughout.
With `COc1ccc(Nc2nccc(-c3ccc(OC4CCN(C(=O)[C@H](C)O)CC4(F)F)c(C#N)c3)n2)nc1OC` (stereo partly drawn) [Example 211, 2-[3,3-Difluoro-1-((S)-2-hydroxy-propionyl)-piperidin-4-yloxy]-5-[2-(5,6-dimethoxy-pyridin-2-ylamino)-pyrimidin-4-yl]-benzonitrile], the IC50 in test [1] and in test [2] was less than 100 nM in each case.
Regarding `C[C@H](O)C(=O)N1CCC(Oc2ccc(-c3ccnc(Nc4ccc(C5CCN(C6COC6)CC5)cc4)n3)cc2C#N)C(F)(F)C1` (stereo partly drawn) [Example 212, 2-([3,3-difluoro-1-[(2S)-2-hydroxypropanoyl]piperidin-4-yl]oxy)-5-[2-([4-[1-(oxetan-3-yl)piperidin-4-yl]phenyl]amino)pyrimidin-4-yl]benzonitrile], the IC50 in test [1] and in test [2] was less than 100 nM each time.
For `C[C@H](O)C(=O)N1CCC(Oc2ccc(-c3ccnc(Nc4ccc(C5CCN(C6COC6)C5)cc4)n3)cc2C#N)C(F)(F)C1` (stereo partly drawn) [Example 213, 2-([3,3-difluoro-1-[(2S)-2-hydroxypropanoyl]piperidin-4-yl]oxy)-5-[2-([4-[1-(oxetan-3-yl)pyrrolidin-3-yl]phenyl]amino)pyrimidin-4-yl]benzonitrile], the IC50 in test [1] and in test [2] was less than 100 nM each time.
For the molecule `C[C@@H](O)C(=O)N1CCC(Oc2ccc(-c3ccnc(Nc4ccc(C5CCN(C6COC6)C5)cc4)n3)cc2C#N)C(F)(F)C1` (stereo partly drawn) [Example 214, 2-([3,3-difluoro-1-[(2R)-2-hydroxypropanoyl]piperidin-4-yl]oxy)-5-[2-([4-[1-(oxetan-3-yl)pyrrolidin-3-yl]phenyl]amino)pyrimidin-4-yl]benzonitrile], the IC50 in test [1] and in test [2] was less than 100 nM each time.
As for `C[C@@H](O)C(=O)N1CCC(Oc2ccc(-c3ccnc(Nc4ccc(N5CCOCC5)cc4)n3)cc2C#N)C(F)(F)C1` (stereo partly drawn) [Example 215, 2-([3,3-difluoro-1-[(2R)-2-hydroxypropanoyl]piperidin-4-yl]oxy)-5-(2-[[4-(morpholin-4-yl)phenyl]amino]pyrimidin-4-yl)benzonitrile], the IC50 in test [1] and in test [2] was less than 100 nM in each case.
For `C[C@H](O)C(=O)N1CCC(Oc2ccc(-c3ccnc(Nc4ccc(N5CCOCC5)cc4)n3)cc2C#N)C(F)(F)C1` (stereo partly drawn) [Example 216, 2-([3,3-difluoro-1-[(2S)-2-hydroxypropanoyl]piperidin-4-yl]oxy)-5-(2-[[4-(morpholin-4-yl)phenyl]amino]pyrimidin-4-yl)benzonitrile], the IC50 in test [1] and in test [2] was less than 100 nM throughout.
Take `COc1cc(Nc2nccc(-c3ccc(OC4CCN(C(=O)[C@H](C)O)CC4(F)F)c(C#N)c3)n2)ccc1N1CCN(C2COC2)CC1` (stereo partly drawn) [Example 217, 2-([3,3-difluoro-1-[(2S)-2-hydroxypropanoyl]piperidin-4-yl]oxy)-5-[2-([3-methoxy-4-[4-(oxetan-3-yl)piperazin-1-yl]phenyl]amino)pyrimidin-4-yl]benzonitrile]: the IC50 in test [1] and in test [2] was less than 100 nM each time.
For `COc1cccc(Nc2nccc(-c3ccc(OC4CCN(C(=O)c5n[nH]c(C)n5)CC4)c(C#N)c3)n2)n1` [Example 218, 5-[2-[(6-methoxypyridin-2-yl)amino]pyrimidin-4-yl]-2-[[1-(5-methyl-1H-1,2,4-triazole-3-carbonyl)piperidin-4-yl]oxy]benzonitrile], the IC50 in test [1] and in test [2] was less than 100 nM in each case.
As for `C[C@H](O)C(=O)N1CCC(Oc2ccc(-c3ccnc(Nc4ccccn4)n3)cc2C#N)C(F)(F)C1` (stereo partly drawn) [Example 219, 2-(3,3-difluoro-1-((S)-2-hydroxypropanoyl)piperidin-4-yloxy)-5-(2-(pyridin-2-ylamino)pyrimidin-4-yl)benzonitrile], the IC50 in test [1] and in test [2] was less than 100 nM throughout.
As for `N#Cc1cc(-c2ccnc(Nc3ccccn3)n2)ccc1OC1CCN(C(=O)CO)CC1(F)F` (centres unmarked) [Example 220, 2-[3,3-Difluoro-1-(2-hydroxy-acetyl)-piperidin-4-yloxy]-5-[2-(pyridin-2-ylamino)-pyrimidin-4-yl]-benzonitrile], the IC50 in test [1] and in test [2] was less than 100 nM throughout.
For `C[C@@H](O)C(=O)N1CCC(Oc2ccc(-c3ccnc(Nc4ccccn4)n3)cc2C#N)C(F)(F)C1` (stereo partly drawn) [Example 221, 2-[3,3-Difluoro-1-((R)-2-hydroxy-propionyl)-piperidin-4-yloxy]-5-[2-(pyridin-2-ylamino)-pyrimidin-4-yl]-benzonitrile], the IC50 in test [1] and in test [2] was 100 to 1000 nM in each case.
